Source: PMC3081663 (Journal of Natural Products, 2011)

What was measured:
panel of cell lines = assay: Cytotoxicity in a panel of cell lines; format: cell-based
MDR1/MRP in HCT-15 cells = format: cell-based
[1] = test system: phosphorylation of histone H2AX in HCT-15 cells; assay: In-cell Western assay for phosphorylation of histone H2AX; format: cell-based; settings: 4 h of drug treatment
supercoiled plasmid DNA = assay: In vitro DNA damage assay; format: biochemical
[2] = test system: cell lines in which MDR1 was overexpressed; settings: MDR1 overexpressed by drug selection or transfection; cited from earlier work
[3] = test system: human colon carcinoma cell line LS174T; settings: LS174T subcutaneously implanted in nude mice; cited from earlier work
[4] = test system: phosphorylation of histone H2AX in MCF7 cells; assay: In-cell Western assay for phosphorylation of histone H2AX; format: cell-based; settings: 4 h
MCF-7 = settings: MCF7 cells, 72 h treatment

CC(C)(O)CCc1ccc(O)c2c(=O)c3c(O)c4c(cc3oc12)O[C@H]1OC=C[C@@]41O [austocystin D]
GI50 (panel of cell lines; 72 h, read-out: GI50 values for three cell lines): < 10 nM
selectivity between sensitive and resistant cell lines (panel of cell lines; 72 h cytotoxicity panel): over 1000 fold
inhibition of calcein-AM efflux (retention of calcein) (MDR1/MRP in HCT-15 cells): inhibited efflux of calcein-AM
induction of phosphorylation of histone H2AX [1]: induced the phosphorylation of histone H2AX
requirement for increased nicked DNA (supercoiled plasmid DNA; 1 μM austocystin D with different additives): only in the presence of both liver microsomes and the NADPH regenerating system
concentration causing direct DNA damage (nicking of supercoiled plasmid DNA) (supercoiled plasmid DNA; human liver microsomes and NADPH regenerating system, 4 h, 37 °C): 100 nM
fold more potent in cell lines in which MDR1 was overexpressed [2]: 20 fold
tumor growth in vivo [3]: inhibited the growth

CC[C@@]1(O)C(=O)OCc2c1cc1n(c2=O)Cc2cc3ccccc3nc2-1 [camptothecin]
induction of phosphorylation of histone H2AX [1]: induced dose-dependent phosphorylation of histone H2AX

CC(C)(O)CCc1ccc(O)c2c(=O)c3c(O)c4c(cc3oc12)O[C@H]1OCC[C@@]41O [dihydro-austocystin D]
induction of the DNA damage response (phosphorylation of histone H2AX) [4]: very weak
cytotoxicity (growth inhibition) (MCF-7): very weak

COc1cccc2c1C(=O)c1c(O)c3c(c(O)c1C2=O)C[C@@](O)(C(=O)CO)C[C@@H]3O[C@H]1C[C@H](N)[C@H](O)[C@H](C)O1 [doxorubicin]
induction of phosphorylation of histone H2AX [1]: induced dose-dependent phosphorylation of histone H2AX

CC(=O)N1CCN(c2ccc(OCC3COC(Cn4ccnc4)(c4ccc(Cl)cc4Cl)O3)cc2)CC1 (centres unmarked) [ketoconazole]
effect on austocystin D cytotoxicity (HCT-15): fully prevented

bleomycin
induction of phosphorylation of histone H2AX [1]: induced dose-dependent phosphorylation of histone H2AX
